We go through one molecule from patent US5886178A, “3-aroylbenzylpyridazinone derivatives” (Syntex (U.S.A.) Inc., priority 1997, dated 1999).

pIC50: −log10 of the molar value.

A short description of assay [1]: Acetic Acid-induced Rat Writhing Assay (analgesic activity). Conditions: 10 mg/Kg, oral, male Sprague Dawley rats. In kind it is in vivo. The text has this:
The analgesic activity of compounds of this invention may be determined by the Acetic Acid-induced Rat Writhing Assay, using a modification of the method described in Berkenkopf, J. W. and Weichman, B. M. "Production of Prostacyclin in Mice following Intraperitoneal Injection of Acetic Acid, Phenylbenzoquinone and Zymosan: Its Role in the Writhing Response". Prostaglandins: 36: 693-70 (1988). This assay is one of several acute assays which have been used to assess the analgesic activity of NSAIDs, and is considered predictive of human efficacy. The test materials were administered orally to male Sprague Dawley rats in a volume of 1 ml/100 g body weight as solutions or suspensions in an aqueous vehicle containing 0.9% NaCl, 0.5% sodium carboxymethyl-cellulose, 0.4% polysorbate 80, 0.9% benzyl alcohol and 97.3% water. Control rats received vehicle alone. One hour after compound administration, 0.3 ml/100 g body weight of 0.75% solution of acetic acid was injected intraperitoneally. The acetic acid injection induces a series of characteristic writhing responses, which were counted over the period between 15 and 30 minutes after the injection. The analgesic activity of test materials is expressed as the percentage inhibition of writhing in the test group relative to the control group.

A short description of assay [2]: Carrageenan-induced paw edema in the rat (anti-inflammatory activity). In kind it is in vivo. As to conditions: 3 h, 10 mg/Kg, oral, female rats, read-out: % inhibition of increase in hind paw weight. The method, then: The anti-inflammatory activity of compounds of this invention was determined by measuring the inhibition of carrageenan-induced paw edema in the rat, using a modification of the method described in Winter C. k et al (1962) "Carrageenan-Induced Edema in Hind Paw of the Rat as an Assay for Anti-inflammatory Drugs". Proc. Soc. Exp. Biol. Med. 111: 544-547. This assay has been used as a primary in vivo screen for anti-inflammatory activity of most NSAIDs, and is considered predictive of human efficacy. Briefly, test materials were administered orally to female rats in a volume of 1 ml prepared as solutions or suspensions in an aqueous vehicle containing 0.9% NaCl, 0.5% sodium carboxymethyl-cellulose, 0.4% polysorbate 80, 0.9% benzyl alcohol and 97.3% distilled water. Control rats received vehicle alone. After 1 hr 0.05 ml of a 0.5% solution of Carrageenan (Type IV Lambda, Sigma Chemical Co.) in 0.9% saline was injected into the subplantar region of the right hind paw. Three hours later the rats were euthanized in a carbon dioxide atmosphere; hind paws were removed by severing at the tatso-crural joint; and the left and right paws were weighed. The increase in weight of the right paw over the left paw was obtained for each animal and the mean increases were calculated for each group. The anti-inflammatory activity of the test materials is expressed as the percent inhibition of the increase in hind paw weight of the test group relative to the vehicle-dosed control group.
The anti-inflammatory activities (expressed as % inhibition) of some of the compounds of the invention were: […]

Assay [3] deals with prostaglandin E2 synthesis. In words: Inhibition of eicosanoid (PGE2) synthesis in vivo, carrageenan air-pouch model in rats. On the set-up: species or system rat. As to conditions: 10 mg/Kg, oral, male rats. As for the experimental part: In this assay, an air-pouch is created in the rat and the PGE2 levels in the air-pouch exudate are measured by enzyme immunoassay. Briefly, male rats were anesthetized using a 60:40 CO2 :O2 mixture and subsequently injected subcutaneously with 20 ml of sterilized air, under aseptic conditions, in the proximal area of the dorsum. This injection of sterile air causes the creation of a subcutaneous "air pouch". The next day, a further 10 ml of sterile air was injected into the previously formed pouch using the same technique. […] Control rats received vehicle alone. After 30 minutes, 5 ml of a 0.5% solution of carrageenan (Sigma, Lambda Type IV) was injected into the air pouch. The rats were euthanized 3 hr after the compound administration. […] The total exudate volume was recorded, and the samples were analyzed for PGE2 and 6-keto PGF1 by ELISA (Titerzyme®, PerSeptive Diagnostics) and TxB2 by radioimmuno assay (New England Nuclear Research, Catalog No. NEK-037), according to the manufacturer's directions.
The mean concentrations of PGE2 were calculated for each group. The anti-inflammatory activity of test materials is expressed as the percent inhibition of PGE2 formation in the test group relative to the control group.

For assay [4], the target named is T1, COX I (Homo sapiens, UniProt P23219). The assay can be described thus: Inhibition of COX I in a cell based assay (human promonocytic THP cells, TXB2 ELISA). On the set-up: endogenous in cells; host or cells: human promonocytic THP cells, PMA-treated. As for the experimental part:
The COX I and COX II inhibitory activity of compounds of this invention in a cell based assay was determined as described below.
The inhibitory activity of the test compounds against cell associated COX-1 was measured using human promonocytic THP cells. Cells were plated in 96-well microtiter plates at a density of 8×10^4 cells/well in RPMI-1640 medium (Gibco). COX-1 activity was initiated by incubating the cells with 0.1μM phorbol 12-myristate 13-acetate (PMA, Sigma) in dimethyl sulfoxide (DMSO, Aldrich) at 37° C. After 40-48 hours, the medium was removed, and the cells were washed twice with phosphate buffered saline (PBS, Gibco). 225 μl/well of fresh medium containing desired concentrations of the test compounds in DMSO, or the carrier vehicles (control wells), was added and the cells incubated at 37° C. for 30 minutes; after which 5 μM calcium ionophore A23187 (Sigma) was added and the incubation was continued for an additional 10 minutes. The reaction was terminated by transferring the plates to ice. The culture supernatants were transferred and appropriately diluted and the amount of thromboxane B2 (TXB2) present in each supernatant was quantitated using an ELISA kit (Cayman Chemicals).
The COX I and COX II inhibitory activities in the cell based assay (expressed as IC50) of some compounds of the invention were: […]

The target of assay [5] is T1, COX I. In words: Inhibition of COX I in vitro, partially purified enzyme, radiometric assay. Conditions: 20 micromolar arachidonic acid. Further details: made in house. Format: biochemical. The method, then: The COX I and COX II inhibitory activity of compounds of this invention in vitro was determined using partially purified COX I and COX II enzymes, prepared as described in J. Barnett et al, Biochim. Biophys.
COX I and COX II samples were diluted with Tris-HCl buffer (50 mM Tris-HCl, pH 7.9) containing 2 mM EDTA and 10% glycerol and reconstituted by incubating first with 2 mM phenol for 5 minutes and then with 1 micromolar hematin for an additional 5 minutes. 125 μl of the reconstituted COX I or COX II enzyme were preincubated for 10 minutes at room temperature in a shaking water bath with the compounds of the invention dissolved in 2-15 μl of DMSO or the carrier vehicles (control samples). The enzyme reaction was initiated by adding 25 μl of 1-[14C]arachidonic acid (80,000-100,000 cpm/tube; 20 micromolar final concentration) and the reaction was allowed to continue for an additional 45 seconds. The reaction was terminated by adding 100 μl of 2N HCl and 750 μl water. An aliquot (950 μl) of the reaction mixture was loaded onto a 1 ml C18 Sep-Pak column (J. T. Baker, Phillipsburg, N.J.) which had been previously washed with 2-3 ml methanol and equilibrated with 5-6 ml distilled water. Oxygenated products were quantitatively eluted with 3 ml of acetonitrile/water/acetic acid (50:50:0.1, v/v) and the radioactivity in the eluate determined in a scintillation counter.

T1 sequence (P23219 24-599): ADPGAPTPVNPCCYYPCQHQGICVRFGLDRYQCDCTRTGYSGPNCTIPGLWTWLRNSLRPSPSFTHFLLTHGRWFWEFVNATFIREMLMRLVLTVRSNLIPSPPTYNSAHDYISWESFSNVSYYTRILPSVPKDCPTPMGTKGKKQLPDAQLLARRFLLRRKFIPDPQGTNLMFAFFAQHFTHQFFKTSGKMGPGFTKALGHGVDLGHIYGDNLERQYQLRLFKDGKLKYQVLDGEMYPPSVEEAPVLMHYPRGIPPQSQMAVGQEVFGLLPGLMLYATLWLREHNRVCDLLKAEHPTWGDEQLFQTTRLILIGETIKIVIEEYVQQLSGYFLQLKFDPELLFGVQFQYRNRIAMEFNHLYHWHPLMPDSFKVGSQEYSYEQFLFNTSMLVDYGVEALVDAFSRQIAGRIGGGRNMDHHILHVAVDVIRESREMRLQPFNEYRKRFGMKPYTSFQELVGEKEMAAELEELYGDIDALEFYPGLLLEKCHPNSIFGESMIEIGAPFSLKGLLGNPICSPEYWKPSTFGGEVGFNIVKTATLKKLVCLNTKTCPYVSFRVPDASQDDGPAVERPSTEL

For `COc1ccc(C(=O)c2cccc(Cc3ccc(=O)[nH]n3)c2C)cc1` [Cpd 11, 6-[3-(4-methoxybenzoyl)-2-methylbenzyl]-2H-pyridazin-3-one], the “% inhibition of writhing responses” value in assay [1] was 10%. Besides, the inhibition in vivo at 10 mg/kg in assay [2] was found to be 44%. In addition, in assay [3], the “% inhibition of air pouch PGE2 formation” value was 80%. The pIC50 is 5.32 on COX I [4] and 3.41 at COX I [5].
